Patent publication US8124365B2, “Identification of genotype-selective anti-tumor agents” (Whitehead Institute for Biomedical Research, priority 2003, dated 2012)

What was measured:
Type in all cases: cell-based, human
[1] = test system: BJ-TERT/LT/ST/RAS^V12 cells; test: Pan-caspase inhibitor block of compound-induced cell death; conditions: 50 μM inhibitor
reactive oxygen species = test: ROS analysis, flow cytometry using H2DCF-DA; conditions: engineered cells
Text: 2′7′ dichlorodihydrofluorescein diacetate (H2DCF-DA) is a non-fluorescent cell permeable compound. The endogenous esterase enzyme inside the cell cleaves the diacetate part, and it can no longer pass out of the cell. Thus it accumulates in the cell. Then H2DCF reacts with ROS to form fluorescent dichlorofluorescene (DCF) which can be measured by flow cytometry in FL1 channel. • 1. Seed cells at 3×10^5 cells per dish in 60 mm dishes and allow to grow overnight. • 2. Treat with the test compound for different period of time (1-10 hr). • 3. Maintain one dish for untreated cells, compound treated cell and positive control dish (hydrogen peroxide treated) for each time point. • 4. Incubate the cells with 10 μM of H2DCF-DA for 10 minutes at 37° C. • 5. For positive control cells, after 5 minutes of H2DCF-DA loading, add 500 μM of hydrogen peroxide and incubate for 5 minutes further. • 6. Harvest the cell by trypsinization. • 7. Wash with cold PBS-twice. • 8. Resuspend the pellet in 100 μl of PBS and transfer into 5 ml FACS tube. • 9. Add 5 μl of propidium iodide (50 μg/ml) and incubate for 10 minutes on ice in dark. • 10. Add 400 μl of PBS and analyze by flow cytometry (Becton-Dickinson). • 11. Acquire the data and analyze using CellQuest software program. • 12. Take only propidium iodiode negative cells (viable cells) for the analysis for DCF staining using the FL1 channel, PI in FL3 channel, plot a quadrant chart.

[2] = test system: BJ-TERT/LT/ST/RAS^V12 cells; test: Calcein AM viability assay, dilution series, BJ-TERT/LT/ST/RAS^V12 tumorigenic cells
Experimental: Described here is work carried out to identify compounds with increased potency or activity in the presence of hTERT, LT, ST, E6, E7 or RAS^V12. […] The primary screen tested (in quadruplicate) the effect of treating tumorigenic […], corresponding to 10 μM for a compound with a molecular weight of 400, which is the approximate median molecular weight of the libraries. […] In live cells, calcein AM is cleaved by intracellular esterases, forming the anionic fluorescent derivative calcein, which cannot diffuse out of live cells. […] The IC50 value (concentration required to inhibit 50% of the calcein AM signal) was calculated for each compound in each cell line (Table 1).
Calcein acetoxylmethyl ester (AM) is a cell membrane-permeable, non-fluorescent compound that is cleaved by intracellular esterases to form the anionic, cell-impermeable, fluorescent compound calcein. Viable cells are stained by calcein because of the presence of intracellular esterases and because the intact plasma membrane prevents fluorescent calcein from leaking out of cells (Wang et al., 1993, supra). Cells were seeded in 384-well plates using a Zymark Sciclone ALH, treated with each […], washed with phosphate-buffered saline on a Packard Minitrak with a 384-well washer and incubated for four hours with 0.7 μg/mL calcein (Molecular Probes). Total fluorescence intensity in each well was recorded on a Packard Fusion platereader, and converted to a percent inhibition of signal by subtracting the instrument background and dividing by the average signal obtained when cells were not treated with any compound.
Compounds to be retested were purchased from manufacturers. Stocks were prepared in DMSO at a concentration of 1 mg/ml in 384-well polypropylene plates with a 16-point, two-fold dilution dose curve of each compound in a column, in duplicates. Column 1-2 and 23-24 were left empty for controls. Daughter retest plates were prepared from stock retest plate by diluting 66.6 fold in DMEM in 384-well deep-deep well plates (4.5 μl transfer into 300 μl). Cells were seeded at a density of 6000 per well in 40 μl, and 20 μl was added from a daughter retest plate. […]
The IC50 in primary BJ cells was divided by the IC50 in BJ-TERT/LT/ST/RAS^V12 tumorigenic cells to obtain a tumor selectivity ratio for each compound. The compound selectivity for each genetic element was determined by calculating the selectivity ratio for each subsequent pair of cell lines in a series.

BJ primary cells = test: Co-treatment of BJ primary cells with camptothecin or erastin and a second compound, calcein AM viability staining; conditions: for effect on BJ cell viability on its own: calcein AM; for sensitization of BJ cells to camptothecin: simultaneous treatment with camptothecin
Text: (A-C) Western blot of lysates from BJ, BJ-TERT, BJ-TERT/LT/ST, BJ-TERT/LT/ST/RAS^V12, BJ-TERT/LT/RAS^V12 and BJ-TERT/LT/RAS^V12/ST cells with an antibody directed against topoisomerase II (A) or TOPI (B, C). In panel (C), cells were transfected with an siRNA directed against TOPI, lamic A/C or with a control double strand DNA duplex of the same length (TOPI dsDNA). In each case, the blot was probed with an antibody against eIF-4E to identify differences in the amount of protein loaded. The relative amount is quantitated below each band. […] Cell number was determined after transfection with an siRNA directed against TOPI and treatment with the indicated concentrations of camptothecin. (E) Okadaic acid, an inhibitor of PP2A and other cellular phosphatases, sensitizes primary human cells to camptothecin. BJ primary cells were treated simultaneously with the indicated concentrations of both camptothecin and okadaic acid and the effect on calcein AM viability staining was determined. […] BJ primary cells were treated with the indicated concentrations of okadaic acid and the expression level of TOPI was determined by western blot. The relative amount is quantitated below each band.
The compounds in group (iii) are camptothecin (CPT) and a novel compound from a combinatorial library, which Applicants have named erastin, for eradicator of RAS and ST-expressing cells (FIG. 2). Efficient CPT-induced and erastin-induced cell death requires the presence of both ST and RAS^V12 (FIGS. 3 and 4 and Table 1). Although CPT and erastin have a similar genetic basis of selectivity, they have distinct mechanisms of action. […] The phosphatase inhibitor okadaic acid was capable of sensitizing otherwise resistant BJ primary cells to CPT (FIG. 5E), possibly because okadaic acid upregulates TOP1 (FIG. 5F).

TOP1 = test: Western blot of TOP1 expression in okadaic acid-treated BJ primary cells
Text: (A-C) Western blot of lysates from BJ, BJ-TERT, BJ-TERT/LT/ST, BJ-TERT/LT/ST/RAS^V12, BJ-TERT/LT/RAS^V12 and BJ-TERT/LT/RAS^V12/ST cells with an antibody directed against topoisomerase II (A) or TOPI (B, C). In panel (C), cells were transfected with an siRNA directed against TOPI, lamic A/C or with a control double strand DNA duplex of the same length (TOPI dsDNA). In each case, the blot was probed with an antibody against eIF-4E to identify differences in the amount of protein loaded. The relative amount is quantitated below each band. […] Cell number was determined after transfection with an siRNA directed against TOPI and treatment with the indicated concentrations of camptothecin. (E) Okadaic acid, an inhibitor of PP2A and other cellular phosphatases, sensitizes primary human cells to camptothecin. BJ primary cells were treated simultaneously with the indicated concentrations of both camptothecin and okadaic acid and the effect on calcein AM viability staining was determined. […] BJ primary cells were treated with the indicated concentrations of okadaic acid and the expression level of TOPI was determined by western blot. The relative amount is quantitated below each band. […]

BJELR cells = test: Screen of ACL library for suppressors of erastin activity in BJELR cells; conditions: 5 μg/ml erastin
Experimental: ACL library comprises 1,540 compounds and all compounds were prepared in DMSO at […] in 384-well polypropylene plates and stored at −20° C. Replica daughter plates for each library plate were prepared using Zymark Scilone ALH. The daughter plates were diluted 50 fold in DMEM and compound concentration in the daughter plate is 80 μg/ml with 2% DMSO. In assay plate compound from the daughter plate is diluted 20 fold with cell suspension, thus final concentration of each compound is 4 μg/ml.
BJELR cells were seeded at 6000 cells/well (57 μl) (for co-treatment screen) and 5000 cells/well (57 μl) (for pretreatment screen) in 384-well black, clear bottom plates using syringe bulk dispenser. For co-treatment suppressor screen, cells were treated with 3 μl of compound from the daughter plates of ACL library (final concentration in assay plate at 4 μg/ml) and at the same time treated with 5 μg/ml of erastin. Compound transfer was done using 384 fixed cannula head. Plates were incubated for 48 hours at 37° C. in incubator with 5% CO2. For the pretreatment screens, cells were pre-incubated with the compound from ACL daughter library plate for overnight and then treated with 5 μg/ml of erastin for further 48 hours. […] Fluorescence intensity was determined using Fusion platereader with filters centered in an excitation of 485 nm and emission of 535 nm. […]

[3] = test system: tumor cells (BJELR cells) versus normal cells (BJEH cells); test: Testing of erastin analogs for activity and selectivity in tumor cells versus normal cells
Text: Applicants additionally tested 135 analogs of erastin for activity and selectivity in tumor cells versus normal cells. […] This compound was named erastin B (see FIG. 8). […] BJELR cells are BJ-TERT/LT/ST/RAS^V12 cells, and BJEH are BJ-TERT cells.

Question: Which “block of cell death induced by CPT” value [1] does the source give for `COC(=O)CC(NC(=O)OC(C)(C)C)C(=O)CF` [BOC-D-FMK, Boc-Asp(Ome)-fluoromethyl ketone] here?
Answer: partially blocked cell death induced by CPT

Question: What about the “block of cell death induced by erastin” value [1] of the same compound?
Answer: not by erastin

Question: `COc1cccc2c1C(=O)c1c(O)c3c(c(O)c1C2=O)C[C@@](O)(C(C)=O)C[C@@H]3O[C@H]1C[C@H](N)[C@H](O)[C@H](C)O1` [Daunorubicin, daunorubicin] was tested. Which “formation of reactive oxygen species” value (reactive oxygen species) did it give?
Answer: did not observe the formation of ROS

Question: How did the “formation of reactive oxygen species” value (reactive oxygen species) turn out when `COc1cccc2c1C(=O)c1c(O)c3c(c(O)c1C2=O)C[C@@](O)(C(=O)CO)C[C@@H]3O[C@H]1C[C@H](N)[C@H](O)[C@H](C)O1` [Doxorubicin, doxorubicin] was run?
Answer: did not observe the formation of ROS

Question: How did the “effectiveness of cell death” value ([2]; BJ-TERT/LT/ST/RAS^V12 cells, within 18 hours) turn out when `CCOc1ccccc1-n1c(C(C)N2CCN(C(=O)COc3ccc(Cl)cc3)CC2)nc2ccccc2c1=O` (stereo not drawn) [Erastin, erastin] was run?
Answer: 100%

Question: `O=C1c2c(O)ccc(O)c2C(=O)c2c(NCCNCCO)ccc(NCCNCCO)c21` [Mitoxantrone, mitoxantrone] was tested. Which “Tumor Selectivity” value ([2]; IC50 in primary BJ cells divided by IC50 in BJ-TERT/LT/ST/RAS^V12 tumorigenic cells) did it give?
Answer: 16

Question: And the “formation of reactive oxygen species” value (reactive oxygen species)?
Answer: did not observe the formation of ROS

Question: What does the source list for `C=C1[C@@H](O)[C@@H]2O[C@]3(CC[C@H](/C=C/[C@@H](C)[C@@H]4CC(C)=C[C@@]5(O[C@H](C[C@@](C)(O)C(=O)O)CC[C@H]5O)O4)O3)CC[C@H]2O[C@@H]1[C@@H](O)C[C@H](C)[C@H]1O[C@@]2(CCCCO2)CC[C@H]1C` [okadaic acid]?
Answer: sensitization of BJ or BJ-TERT cells to erastin (BJ primary cells): does not render BJ or BJ-TERT cells sensitive to erastin; effect on BJ cell viability on its own (BJ primary cells; 3.4 nM): no effect on its own; effect on BJ cell viability on its own (BJ primary cells; highest concentrations tested): kills BJ cells; sensitization of BJ cells to camptothecin (BJ primary cells): renders BJ cells sensitive to camptothecin; expression level of TOP1 (TOP1): stimulates expression of TOP1

Question: With `COc1cc([C@@H]2c3cc4c(cc3[C@H](O)[C@H]3COC(=O)[C@H]23)OCO4)cc(OC)c1OC` [podophyllotoxin] as the compound, how does the “sensitization of BJ cells to camptothecin” value (BJ primary cells) read?
Answer: does not sensitize BJ or BJ-TERT cells to CPT

Question: With `Cc1c(C)c2c(c(C)c1O)CC[C@@](C)(CCC[C@H](C)CCC[C@H](C)CCCC(C)C)O2` [α-tocopherol] as the compound, how does the “suppression of erastin activity” value (BJELR cells) read?
Answer: suppress erastin activity

Question: For erastin B, which “activity and selectivity in tumor cells versus normal cells” value [3] is on record?
Answer: active and selective, but less potent than erastin
